Activity calls are given as the source filed them. No cut-off for these calls is given here.
What was measured:
Format in all cases: functional, cell-based
HepG2 [1] = test: Hypolipidemic activity in human HepG2 cells assessed as inhibition of oleic acid-induced lipid accumulation at 10 uM
HepG2 [2] = test: Hypolipidemic activity against oleic acid-induced lipid accumulation in human HepG2 cell model assessed as decrease in phosphatidylcholine (O-16:0/20:5) level at 10 uM by UPLC-QTOF-MS analysis
HepG2 [3] = test: Hypolipidemic activity against oleic acid-induced lipid accumulation in human HepG2 cell model assessed as decrease in 1acyl-sn-glycero-3phosphocholines (18:2/0:0) level at 10 uM by UPLC-QTOF-MS analysis
HepG2 [4] = test: Hypolipidemic activity against oleic acid-induced lipid accumulation in human HepG2 cell model assessed as decrease in diglycerides (20:1/0:0/20:4) level at 10 uM by UPLC-QTOF-MS analysis
HepG2 [5] = test: Hypolipidemic activity against oleic acid-induced lipid accumulation in human HepG2 cell model assessed as decrease in triglycerides (16:0/16:0/18:3) level at 10 uM by UPLC-QTOF-MS analysis
HepG2 [6] = test: Hypolipidemic activity against oleic acid-induced lipid accumulation in human HepG2 cell model assessed as decrease in diglycerides (20:5/16:0/0:0) level at 10 uM by UPLC-QTOF-MS analysis
HepG2 [7] = test: Hypolipidemic activity against oleic acid-induced lipid accumulation in human HepG2 cell model assessed as decrease in triglycerides (16:0/14:0/20:5) level at 10 uM by UPLC-QTOF-MS analysis
HepG2 [8] = test: Hypolipidemic activity against oleic acid-induced lipid accumulation in human HepG2 cell model assessed as decrease in triglycerides (18:1/18:3/18:1) level at 10 uM by UPLC-QTOF-MS analysis
HepG2 [9] = test: Hypolipidemic activity against oleic acid-induced lipid accumulation in human HepG2 cell model assessed as decrease in diglycerides (20:4/18:2/0:0) level at 10 uM by UPLC-QTOF-MS analysis
HepG2 [10] = test: Downregulation of SREBF1 mRNA expression in human HepG2 cells at 10 uM by qRT-PCR analysis
HepG2 [11] = test: Hypolipidemic activity against oleic acid-induced lipid accumulation in human HepG2 cell model assessed as decrease in triglycerides (18:1/16:0/20:5) level at 10 uM by UPLC-QTOF-MS analysis
HepG2 [12] = test: Hypolipidemic activity against oleic acid-induced lipid accumulation in human HepG2 cell model assessed as decrease in diglycerides (18:2/20:5/0:0) level at 10 uM by UPLC-QTOF-MS analysis
HepG2 [13] = test: Downregulation of HMGCR mRNA expression in human HepG2 cells at 10 uM by qRT-PCR analysis
HepG2 [14] = test: Hypolipidemic activity against oleic acid-induced lipid accumulation in human HepG2 cell model assessed as decrease in phosphatidylcholine (18:2/18:2) level at 10 uM by UPLC-QTOF-MS analysis
HepG2 [15] = test: Downregulation of FASN mRNA expression in human HepG2 cells at 10 uM by qRT-PCR analysis

CC(C)=CC(=O)/C=C(/C)CCO[C@H]1O[C@@H](COC(=O)/C=C/c2ccc(O)c(O)c2)[C@H](O)[C@@H](O)[C@@H]1O
Activity (HepG2 [1]): Active

CC(C)=C[C@@H]1C/C(=C\CO[C@H]2O[C@@H](COC(=O)/C=C/c3ccc(O)cc3)[C@H](O)[C@@H](O)[C@@H]2O)C(=O)O1
Activity (HepG2 [1]): Active

CC(C)=C[C@H]1C/C(=C\CO[C@H]2O[C@@H](COC(=O)/C=C/c3ccc(O)cc3)[C@H](O)[C@@H](O)[C@@H]2O)C(=O)O1
Activity (HepG2 [1]): inactive

CC(C)=CC(=O)/C=C(\C)CCO[C@H]1O[C@@H](COC(=O)/C=C/c2ccc(O)c(O)c2)[C@H](O)[C@@H](O)[C@@H]1O
Activity (HepG2 [1]): Active

COc1ccc(/C=C/C(=O)OC[C@@H]2O[C@H](OC/C=C3\C[C@@H](C=C(C)C)OC3=O)[C@@H](O)[C@H](O)[C@H]2O)cc1O
Activity (HepG2 [2]): Active
Activity (HepG2 [3]): Active
Activity (HepG2 [4]): Active
Activity (HepG2 [5]): Active
Activity (HepG2 [6]): Active
Activity (HepG2 [7]): Active
Activity (HepG2 [8]): Active
Activity (HepG2 [9]): Active
inhibition (HepG2 [10]): inactive
Activity (HepG2 [11]): Active
Activity (HepG2 [12]): Active
inhibition (HepG2 [13]): inactive
Activity (HepG2 [1]): Active
Activity (HepG2 [14]): Active
inhibition (HepG2 [15]): Active

COC(=O)/C=C/c1ccc(O)c(OC)c1
Activity (HepG2 [1]): inactive

COc1ccc(/C=C/C(=O)OC[C@@H]2O[C@H](OC/C=C3\C[C@H](C=C(C)C)OC3=O)[C@@H](O)[C@H](O)[C@H]2O)cc1O
Activity (HepG2 [1]): Active
